{
  "source": "the supplement of paper PMC10307832",
  "assay_in_all_cases": "relative viability (nuclei count vs DMSO), 5 days (fraction); higher = more cells survive",
  "key": {"201T": {"system": "201T", "method_in_brief": "(§1)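 Lung cancer cell lines, seeded in 1536-well plates, were treated the following day by pin tool with a single drug or with five library-drug doses (not always all listed) in √10 steps on top of a fixed anchor-drug dose. Cells were fixed and nuclei stained in one step after 5 days, and nuclei were counted. Relative viability is the nuclei count for treated wells divided by that for vehicle wells, reported as medians of duplicate plates.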"}, "ABC-1": {"system": "ABC-1", "method_in_brief": "as §1"}, "COR-L 105": {"system": "COR-L 105", "method_in_brief": "as §1"}, "COR-L23": {"system": "COR-L23", "method_in_brief": "as §1"}, "EKVX": {"system": "EKVX", "method_in_brief": "as §1"}, "EPLC-272H": {"system": "EPLC-272H", "method_in_brief": "as §1"}, "H3255": {"system": "H3255", "method_in_brief": "as §1"}, "HCC-15": {"system": "HCC-15", "method_in_brief": "as §1"}, "HCC-44": {"system": "HCC-44", "method_in_brief": "as §1"}, "HCC-827": {"system": "HCC-827", "method_in_brief": "as §1"}, "NCI-H1437": {"system": "NCI-H1437", "method_in_brief": "as §1"}, "NCI-H1650": {"system": "NCI-H1650", "method_in_brief": "as §1"}, "NCI-H1651": {"system": "NCI-H1651", "method_in_brief": "as §1"}, "NCI-H1792": {"system": "NCI-H1792", "method_in_brief": "as §1"}, "NCI-H1975": {"system": "NCI-H1975", "method_in_brief": "as §1"}, "NCI-H2087": {"system": "NCI-H2087", "method_in_brief": "as §1"}, "NCI-H358": {"system": "NCI-H358", "method_in_brief": "as §1"}, "NCI-H520": {"system": "NCI-H520", "method_in_brief": "as §1"}, "NCI-H647": {"system": "NCI-H647", "method_in_brief": "as §1"}, "NCI-H661": {"system": "NCI-H661", "method_in_brief": "as §1"}, "NCI-H727": {"system": "NCI-H727", "method_in_brief": "as §1"}, "NCI-H838": {"system": "NCI-H838", "method_in_brief": "as §1"}, "UMC-11": {"system": "UMC-11", "method_in_brief": "as §1"}},
  "data": [
    {"smiles": "CCCCCCCCCCCC1=C(O)C(=O)C=C(O)C1=O", "note": "[Embelin] + CS(=O)(=O)CCNCc1ccc(-c2ccc3ncnc(Nc4ccc(OCc5cccc(F)c5)c(Cl)c4)c3c2)o1 [Lapatinib] (partner 2 µM)", "values": [
      {"measurement": "relative viability", "setting": "201T; first compound 0.08 µM", "result": 1.03},
      {"measurement": "relative viability", "setting": "201T; first compound 0.8 µM", "result": 1.04},
      {"measurement": "relative viability", "setting": "201T; first compound 2.53 µM", "result": 1},
      {"measurement": "relative viability", "setting": "201T; first compound 8 µM", "result": 0.99},
      {"measurement": "relative viability", "setting": "ABC-1; first compound 0.08 µM", "result": 1.28},
      {"measurement": "relative viability", "setting": "ABC-1; first compound 0.8 µM", "result": 1.7},
      {"measurement": "relative viability", "setting": "ABC-1; first compound 2.53 µM", "result": 1.25},
      {"measurement": "relative viability", "setting": "ABC-1; first compound 8 µM", "result": 1.1},
      {"measurement": "relative viability", "setting": "COR-L 105; first compound 0.08 µM", "result": 0.356},
      {"measurement": "relative viability", "setting": "COR-L 105; first compound 0.8 µM", "result": 0.436},
      {"measurement": "relative viability", "setting": "COR-L 105; first compound 2.53 µM", "result": 0.384},
      {"measurement": "relative viability", "setting": "COR-L 105; first compound 8 µM", "result": 0.391},
      {"measurement": "relative viability", "setting": "COR-L23; first compound 0.08 µM", "result": 0.927},
      {"measurement": "relative viability", "setting": "COR-L23; first compound 0.8 µM", "result": 0.966},
      {"measurement": "relative viability", "setting": "COR-L23; first compound 2.53 µM", "result": 1.34},
      {"measurement": "relative viability", "setting": "COR-L23; first compound 8 µM", "result": 1.09},
      {"measurement": "relative viability", "setting": "EKVX; first compound 0.08 µM", "result": 0.197},
      {"measurement": "relative viability", "setting": "EKVX; first compound 0.8 µM", "result": 0.528},
      {"measurement": "relative viability", "setting": "EKVX; first compound 2.53 µM", "result": 0.215},
      {"measurement": "relative viability", "setting": "EKVX; first compound 8 µM", "result": 0.211},
      {"measurement": "relative viability", "setting": "EPLC-272H; first compound 0.08 µM", "result": 0.899},
      {"measurement": "relative viability", "setting": "EPLC-272H; first compound 0.8 µM", "result": 1.38},
      {"measurement": "relative viability", "setting": "EPLC-272H; first compound 2.53 µM", "result": 1.01},
      {"measurement": "relative viability", "setting": "EPLC-272H; first compound 8 µM", "result": 0.816},
      {"measurement": "relative viability", "setting": "H3255; first compound 0.08 µM", "result": 0.225},
      {"measurement": "relative viability", "setting": "H3255; first compound 0.8 µM", "result": 0.281},
      {"measurement": "relative viability", "setting": "H3255; first compound 2.53 µM", "result": 0.234},
      {"measurement": "relative viability", "setting": "H3255; first compound 8 µM", "result": 0.281},
      {"measurement": "relative viability", "setting": "HCC-15; first compound 0.08 µM", "result": 0.835},
      {"measurement": "relative viability", "setting": "HCC-15; first compound 0.8 µM", "result": 0.92},
      {"measurement": "relative viability", "setting": "HCC-15; first compound 2.53 µM", "result": 0.944},
      {"measurement": "relative viability", "setting": "HCC-15; first compound 8 µM", "result": 0.795},
      {"measurement": "relative viability", "setting": "HCC-44; first compound 0.08 µM", "result": 1.03},
      {"measurement": "relative viability", "setting": "HCC-44; first compound 0.8 µM", "result": 1.02},
      {"measurement": "relative viability", "setting": "HCC-44; first compound 2.53 µM", "result": 1.15},
      {"measurement": "relative viability", "setting": "HCC-44; first compound 8 µM", "result": 0.908},
      {"measurement": "relative viability", "setting": "HCC-827; first compound 0.08 µM", "result": 0.157},
      {"measurement": "relative viability", "setting": "HCC-827; first compound 0.8 µM", "result": 0.176},
      {"measurement": "relative viability", "setting": "HCC-827; first compound 2.53 µM", "result": 0.179},
      {"measurement": "relative viability", "setting": "HCC-827; first compound 8 µM", "result": 0.197},
      {"measurement": "relative viability", "setting": "NCI-H1437; first compound 0.08 µM", "result": 0.784},
      {"measurement": "relative viability", "setting": "NCI-H1437; first compound 0.8 µM", "result": 0.938},
      {"measurement": "relative viability", "setting": "NCI-H1437; first compound 2.53 µM", "result": 1.04},
      {"measurement": "relative viability", "setting": "NCI-H1437; first compound 8 µM", "result": 0.466},
      {"measurement": "relative viability", "setting": "NCI-H1650; first compound 0.08 µM", "result": 0.762},
      {"measurement": "relative viability", "setting": "NCI-H1650; first compound 0.8 µM", "result": 0.931},
      {"measurement": "relative viability", "setting": "NCI-H1650; first compound 2.53 µM", "result": 0.74},
      {"measurement": "relative viability", "setting": "NCI-H1650; first compound 8 µM", "result": 0.712},
      {"measurement": "relative viability", "setting": "NCI-H1651; first compound 0.08 µM", "result": 0.789},
      {"measurement": "relative viability", "setting": "NCI-H1651; first compound 0.8 µM", "result": 0.974},
      {"measurement": "relative viability", "setting": "NCI-H1651; first compound 2.53 µM", "result": 0.99},
      {"measurement": "relative viability", "setting": "NCI-H1651; first compound 8 µM", "result": 0.824},
      {"measurement": "relative viability", "setting": "NCI-H1792; first compound 0.08 µM", "result": 0.917},
      {"measurement": "relative viability", "setting": "NCI-H1792; first compound 0.8 µM", "result": 0.877},
      {"measurement": "relative viability", "setting": "NCI-H1792; first compound 2.53 µM", "result": 1.09},
      {"measurement": "relative viability", "setting": "NCI-H1792; first compound 8 µM", "result": 1.06},
      {"measurement": "relative viability", "setting": "NCI-H1975; first compound 0.08 µM", "result": 0.807},
      {"measurement": "relative viability", "setting": "NCI-H1975; first compound 0.8 µM", "result": 0.951},
      {"measurement": "relative viability", "setting": "NCI-H1975; first compound 2.53 µM", "result": 1.09},
      {"measurement": "relative viability", "setting": "NCI-H1975; first compound 8 µM", "result": 0.872},
      {"measurement": "relative viability", "setting": "NCI-H2087; first compound 0.08 µM", "result": 1.07},
      {"measurement": "relative viability", "setting": "NCI-H2087; first compound 0.8 µM", "result": 1.02},
      {"measurement": "relative viability", "setting": "NCI-H2087; first compound 2.53 µM", "result": 1.2},
      {"measurement": "relative viability", "setting": "NCI-H2087; first compound 8 µM", "result": 1.23},
      {"measurement": "relative viability", "setting": "NCI-H358; first compound 0.08 µM", "result": 0.452},
      {"measurement": "relative viability", "setting": "NCI-H358; first compound 0.8 µM", "result": 0.525},
      {"measurement": "relative viability", "setting": "NCI-H358; first compound 2.53 µM", "result": 0.47},
      {"measurement": "relative viability", "setting": "NCI-H358; first compound 8 µM", "result": 0.384},
      {"measurement": "relative viability", "setting": "NCI-H520; first compound 0.08 µM", "result": 0.946},
      {"measurement": "relative viability", "setting": "NCI-H520; first compound 0.8 µM", "result": 0.729},
      {"measurement": "relative viability", "setting": "NCI-H520; first compound 2.53 µM", "result": 0.936},
      {"measurement": "relative viability", "setting": "NCI-H520; first compound 8 µM", "result": 0.862},
      {"measurement": "relative viability", "setting": "NCI-H647; first compound 0.08 µM", "result": 1.08},
      {"measurement": "relative viability", "setting": "NCI-H647; first compound 0.8 µM", "result": 1.38},
      {"measurement": "relative viability", "setting": "NCI-H647; first compound 2.53 µM", "result": 1.89},
      {"measurement": "relative viability", "setting": "NCI-H647; first compound 8 µM", "result": 1.17},
      {"measurement": "relative viability", "setting": "NCI-H661; first compound 0.08 µM", "result": 0.467},
      {"measurement": "relative viability", "setting": "NCI-H661; first compound 0.8 µM", "result": 0.596},
      {"measurement": "relative viability", "setting": "NCI-H661; first compound 2.53 µM", "result": 0.545},
      {"measurement": "relative viability", "setting": "NCI-H661; first compound 8 µM", "result": 0.48},
      {"measurement": "relative viability", "setting": "NCI-H727; first compound 0.08 µM", "result": 0.737},
      {"measurement": "relative viability", "setting": "NCI-H727; first compound 0.8 µM", "result": 0.753},
      {"measurement": "relative viability", "setting": "NCI-H727; first compound 2.53 µM", "result": 1.13},
      {"measurement": "relative viability", "setting": "NCI-H727; first compound 8 µM", "result": 0.738},
      {"measurement": "relative viability", "setting": "NCI-H838; first compound 0.08 µM", "result": 1.07},
      {"measurement": "relative viability", "setting": "NCI-H838; first compound 0.8 µM", "result": 1.31},
      {"measurement": "relative viability", "setting": "NCI-H838; first compound 2.53 µM", "result": 1.02},
      {"measurement": "relative viability", "setting": "NCI-H838; first compound 8 µM", "result": 1.14},
      {"measurement": "relative viability", "setting": "UMC-11; first compound 0.08 µM", "result": 1.12},
      {"measurement": "relative viability", "setting": "UMC-11; first compound 0.8 µM", "result": 1.17},
      {"measurement": "relative viability", "setting": "UMC-11; first compound 2.53 µM", "result": 1.08},
      {"measurement": "relative viability", "setting": "UMC-11; first compound 8 µM", "result": 0.877}
    ]}
  ]
}
